Results published in US20150352107A1, “ALPHA7 NEURONAL NICOTINIC RECEPTOR LIGAND AND ANTIPSYCHOTIC COMPOSITIONS” (AbbVie Inc., priority 2005, published 2015).
“Also recorded” adds a separate entry of the source. Read-outs that look alike come from different tables or passages of the source.

Tests used:
[1] = cited from earlier work; for Optimal Dose and/or Minimally Effective Dose / EPS risk: dose of augmented risk: clinical use
[2] = system: DBA/2J mice; assay: Prepulse inhibition (PPI) of startle in DBA/2 mice; type: in vivo, mouse; details: for dose at which efficacy was observed in DBA2 mouse PPI: i.p., antipsychotic alone, FIG. 1
Description: Dysfunctions of sensory gating and information processing have been putatively associated with clinical features such as perpetual aberrations, hallucinations and distraction and been considered as potential precursors of sensory overload, cognitive fragmentation and disorganization. Among the physiological measures, one approach has involved the startle reflex with the prepulse inhibition (PPI) paradigm. […] PPI refers to a reduction in the acoustic startle reflex to a loud noise when the loud noise is preceded by a weak auditory stimulus. At short lead intervals, this has the effect of markedly reducing or gating the amplitude of the startle response and increasing its latency. Disruption of PPI occurs with agonists of dopamine and serotonin, and with glutamate/N-methyl D aspartate (NMDA) receptor antagonists, or can be induced by genetic (e.g., DBA2 mouse strain) and experimental manipulations (e.g., rearing rats in isolation, neurotoxic lesions, or other methods). […] (Olivier B., et al., Psychopharmacology (2001) vol. 156:284-290; Ouagazzal A-M., Psychopharmacology (2001) vol. 156:273-283; Simosky J. K., Psychopharmacology (2003) vol. 165:386-396). To accomplish the study, the following materials and methods were used.
Male DBA/2J mice (Jackson Laboratories AX9 facility, Bar Harbor, Me., USA) at age 6-8 weeks old were used for all investigations.
Startle response and PPI were measured using startle chambers from Hamilton Kinder (Poway, Calif., USA). Each chamber contained a plexiglas rectangle with an adjustable ceiling housed in a ventilated, sound-attenuated cubicle. The ceiling was adjusted on an individual (animal by animal) basis to allow for adequate headroom but no rears or extensive locomotion. The chamber was placed over an anchor plate attached to a piezoelectric disk to transduce startle responses to a computer. A loudspeaker located in each chamber delivered the background noise (65 dB), and the acoustic stimuli. A constant white noise was maintained in the experimental room for the duration of the experiment by a white noise generator (Radioshack, USA). Each session was initiated with a 5-minute acclimation period followed by four successive 120 dB, 40 ms trials. These trials were not included in the main analysis, but are referred to as baseline responses. Animals were then presented with 5 different trial types: startle pulse (120 dB, 40), or prepulse stimulus of one of three sound levels (70, 75, or 80 dB) for 20 ms, followed 100 ms later by an acoustic startle (120 dB) for 40 ms. A total of 12 trials under each condition were delivered in a random sequence and all trials were separated by a variable inter-trial interval of 5-25 s. Finally, this sequence ended with the presentation of four 120 dB, 40 ms sound bursts (not included in the main analyses, but included in the baseline or habituation analyses). The animals were injected with the test compounds 30 minutes before the start of the trials. In the startle alone trials, the basic auditory startle, or startle response was measured, and in the prepulse plus startle trials, the levels of PPI was calculated as a percentage score for each acoustic prepulse trial type using (typically) the formula: […].
Data were first analyzed using a two-way repeated measures analysis of variance (ANOVA) with two independent factors. If there was a significant interaction of both factors, subsequent post hoc one-way ANOVAs were performed using each treatment combination as an independent group. All post hoc significance was determined using Fishers protected least significant difference test. (p<0.05 was regarded as significant).
Startle response and PPI were measured using startle chambers from Hamilton Kinder (Poway, Calif., USA). Each chamber contained a plexiglas rectangle with an adjustable ceiling housed in a ventilated, sound-attenuated cubicle. […]

[3] = system: Sprague Dawley rats; assay: Catalepsy bar test in rats (EPS predictor)
Procedure: One of the adverse effects of antipsychotic medications is extrapyramidal movement disorder syndrome attributed to blockade of the dopamine D2 receptors. Extrapyramidal movement disorder can be predicted by the cataleptic response elicited by an antipsychotic in a rodent. To assess whether Compound 1 alone evoked cataleptic responses or interfered with the cataleptic effect of the antipsychotic, the following set of studies were conducted. The materials and methods used to accomplish the study follow.
Male Sprague Dawley rats (CRL: CD (SD), Charles River Laboratories, Omaha, Nebr.) weighing 300-325 g were used for the experiment.
Rats were handled and habituated to the testing room before starting. […] The degree of catalepsy was measured by gently placing both forepaws over a metal bar (1.1 cm. diameter suspended 8 cm. above the table top). The time in seconds until the rat took both paws off the bar was recorded, with a maximum cut-off of 300 seconds. […] Alternately, any catalepsy trial time that was greater than 15 seconds (up to 300 seconds) was recorded.
Rats were handled and habituated to the testing room before starting. […] The degree of catalepsy was measured by gently placing both forepaws over a metal bar (1.1 cm. diameter suspended 8 cm. above the table top). The time in seconds until the rat took both paws off the bar was recorded, with a maximum cut-off of 300 seconds. […]

For O=C(CCCN1CCC(O)(c2ccc(Cl)cc2)CC1)c1ccc(F)cc1 [Haloperidol, 4-(4-[4-chlorophenyl]-4-hydroxy-1-piperidinyl)-1-(4-fluorophenyl)-1-butanone], the “Optimal Dose and/or Minimally Effective Dose” value [1] is given as 2 to 5 mg/day, the “Dose of Increased Side Effect Risk” value ([1]; risk for EPS) is given as ~3 mg and the “dose at which efficacy was observed in DBA2 mouse PPI” value [2] is given as 3 mg/kg.

With c1ccc(-c2ccc(N3CC4CNCC4C3)nn2)cc1 (centres unmarked) [Compound 2, 2-(6-phenylpyridazin-3-yl)octahydropyrrolo[3,4-c]pyrrole] the “effect on risperidone-induced catalepsy” value ([3]; Compound 2 4.0 mg/kg i.p. + risperidone 2.5 mg/kg i.p., FIG. 11) was “did not significantly alter cataleptic behavior of risperidone”, the “effect on PPI in combination with sub efficacious risperidone” value (from here on “effect … with sub efficacious risperidone”) ([2]; Compound 2 0.4-4.0 mg/kg + risperidone 0.1 mg/kg, FIG. 7) was “attained maximal efficacy; also recorded: potentiates the efficacy of risperidone” and the “effect on PPI, alone” value ([2]; Compound 2 alone 0.04-4.0 mg/kg, FIG. 6) was “no effect”.

For Cc1cc2c(s1)Nc1ccccc1N=C2N1CCN(C)CC1 [Olanzapine, 2-methyl-4-(4-methyl-1-piperazinyl)-10H-thieno[2,3-b][1,5]benzodiazepine], the “EPS risk: dose of augmented risk” value [1] is listed as “risk >7.5 mg/kg/day” and the “Optimal Dose and/or Minimally Effective Dose” value [1] is listed as 10 to 20 mg/day.

In the case of O=C1CCc2ccc(OCCCCN3CCN(c4cccc(Cl)c4Cl)CC3)cc2N1 [Arpiprazole], the “Optimal Dose and/or Minimally Effective Dose” value [1] is given as 15 mg/day.

For O=C1Cc2cc(CCN3CCN(c4nsc5ccccc45)CC3)c(Cl)cc2N1 [Ziprasidone, 5-[2-[4-(1,2-benzoisothiazol-3-yl)-1-piperazinyl]ethyl]-6-chloro-1,3-dihydro-2H-indol-2-one], the “Dose of Increased Side Effect Risk” value ([1]; EPS risk) is given as >80 mg/day, the “EPS risk: dose of augmented risk” value [1] is given as “risk >80 mg/kg/day” and the “Optimal Dose and/or Minimally Effective Dose” value [1] is given as 120 mg/day.

In the case of O=C(N[C@H]1CN2CCC1CC2)c1ccc(Cl)cc1.O=C(O)/C=C/C(=O)O [Compound 3, N-(3R)-1-azabicyclo[2,2,2]oct-3-yl-4-chlorobenzamide fumarate], the “effect on risperidone-induced catalepsy” value ([3]; Compound 3 3.0 mg/kg i.p. + risperidone 2.5 mg/kg i.p., FIG. 12) is reported as “did not significantly alter cataleptic behavior of risperidone”, the “effect … with sub efficacious risperidone” value ([2]; Compound 3 1.0-10.0 mg/kg + risperidone 0.1 mg/kg, FIG. 9, fumarate) is reported as “attained maximal efficacy; also recorded: boosting the effect of a sub efficacious dose of risperidone” and the “effect on PPI, alone” value ([2]; Compound 3 alone 1.0-10.0 mg/kg, FIG. 8) is reported as “no effect”.

In the case of Cc1nc2n(c(=O)c1CCN1CCC(c3noc4cc(F)ccc34)CC1)CCCC2 [Risperidone, 3-[2-[4-(6-fluoro-1,2-benzisoxazol-3-yl)-1-piperidinyl]ethyl]-6,7,8,9-tetrahydro-2-methyl-4H-pyrido[1,2-a]pyrimidin-4-one], the “Dose of Increased Side Effect Risk” value ([1]; EPS risk) is listed as “≧6 mg/day”, the “EPS risk: dose of augmented risk” value [1] is listed as “risk >6 mg/kg/day” and the “Optimal Dose and/or Minimally Effective Dose” value [1] is listed as 4 to 6 mg/day.

In the case of CN1CCN(C2=Nc3cc(Cl)ccc3Nc3ccccc32)CC1 [Clozapine, 8-chloro-11-(4-methyl-1-piperazinyl)-5H-dibenzo[b,e][1,4]diazepine], the “Optimal Dose and/or Minimally Effective Dose” value [1] is given as 300 to 400 mg/day, the “Dose of Increased Side Effect Risk” value ([1]; low risk for seizures) is given as <300 mg/day and the “Dose of Increased Side Effect Risk” value ([1]; moderate risk for seizures) is given as 300 to 599 mg/day. The “dose at which efficacy was observed in DBA2 mouse PPI” value [2] was 3 mg/kg.

For c1cc2cc(-c3ccc(O[C@H]4CN5CCC4CC5)nn3)ccc2[nH]1 [Compound 1], the “effect on PPI in combination with maximally efficacious haloperidol” value ([2]; Compound 1 0.04-4.0 mg/kg i.p. 10 minutes prior to maximally efficacious dose of haloperidol, FIG. 5) was “significant potentiation of effects; also recorded: does not interfere with the efficacy of haloperidol”, the “effect … with sub efficacious risperidone” value ([2]; Compound 1 (0.04 mg/kg) + risperidone 0.1 mg/kg, FIG. 2) was “a maximally efficacious response is achieved; also recorded: boosting the effect of a sub efficacious dose of risperidone” and the “effect on PPI in combination with sub efficacious haloperidol” value ([2]; Compound 1 (0.04-4.0 mg/kg) + haloperidol 0.3 mg/kg, FIG. 4) was “more efficacious; also recorded: boosting the effect of a sub efficacious dose of haloperidol”. The “effect on PPI, alone” value ([2]; Compound 1 alone at 0.04 mg/kg, FIG. 2) was “does not have an effect”.
